pEC50: −log10 of the molar value. Like-named read-outs stand apart in the source and are kept apart here.

As usually defined, the pEC50 is −log10 of the EC50, conventionally taken in molar units.

The target of the assay is T1, human GLP-1 receptor (Homo sapiens, UniProt P43220).
T1 construct: HA (N); expressed in transfected cells
Nature of the assay: GLP-1 receptor-mediated agonist activity: cAMP level in hGLP-1R/HEK293 cell line (HTRF). Type of assay: cell-based. On the technique in general: cAMP levels reflect the balance of adenylyl cyclase and phosphodiesterase activity.

Setting [1] is: cAMP levels in hGLP-1R/HEK293 cell line, Table 1, read-out: determined EC50.
The mark [2] stands for this setting: cAMP levels of the hGLP-1R/HEK293 cell line, Table 2, comparison with reference compounds, read-out: EC50.

T1 sequence (P43220 24-463): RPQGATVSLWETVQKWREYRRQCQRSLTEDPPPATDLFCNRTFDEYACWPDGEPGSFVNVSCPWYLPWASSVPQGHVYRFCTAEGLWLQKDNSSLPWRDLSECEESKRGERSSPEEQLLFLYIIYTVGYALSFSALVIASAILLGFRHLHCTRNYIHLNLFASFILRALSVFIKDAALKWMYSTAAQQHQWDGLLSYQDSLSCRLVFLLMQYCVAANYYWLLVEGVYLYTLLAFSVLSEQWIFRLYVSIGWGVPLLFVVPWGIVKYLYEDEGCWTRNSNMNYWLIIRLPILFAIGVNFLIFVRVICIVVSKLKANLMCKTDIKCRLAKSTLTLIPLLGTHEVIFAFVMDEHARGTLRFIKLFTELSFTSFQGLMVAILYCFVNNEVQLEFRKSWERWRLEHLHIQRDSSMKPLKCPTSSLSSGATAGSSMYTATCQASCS
Procedure: The hGLP-1R/HEK293 cells were digested, centrifuged and resuspended in culture medium (DMEM+0.2% BSA, m/v), and the cell density was adjusted to 2×10^5 cells/mL. IBMX (3-isobutyl-1-methylxanthine, final concentration of 0.5 mM) was added to the cell suspension and added to a 384-well plate at 5 µL (1×10^3 cells)/well. The compound was dissolved in DMSO to prepare a stock solution with a concentration of 10 mM. The experiment started with a concentration of 100 µM which was diluted 10 times in a series of 7 dilution points, with the 8th point being DMSO. 2 µL of the test compound of different concentrations was added to 98 µL of culture medium, shaken and mixed, 5 µL was taken and added to a 384-well plate (final concentration of the test compound was 0-100 nM, final concentration of DMSO was 1%, v/v), which was then incubated in the incubator (37°C, 5% CO2) in the dark for 30 min, then 10 µL of cAMP detection reagent (LANCE Ultra cAMP Detecion Kit, PerkinElmer, #TRF0264) was added, mixed well, and reacted at room temperature in the dark for 1 h. After the reaction was completed, the HTRF signal was read using the Envision 2104 multi-function microplate reader. All samples were tested in triplicate wells, and the ratio of the acceptor-donor excitation signal in each single well was calculated using the formula Ratio = Signal 665nM/Signal 620nM. The HTRF signal ratio and the corresponding compound concentration were analyzed and processed using GraphPad Prism 8 software, and the EC50 value of the compound was obtained by fitting the S-type dose-response curve and calculating.

Take `N#Cc1ccc(COc2cccc(C3CCN(Cc4nc5c(OCC6CC6)cc(C(=O)O)cc5n4C[C@@H]4CCO4)CC3)n2)c(F)c1` [Compound 5, (S)-2-((4-(6-((4-cyano-2-fluorobenzyl)oxy)pyridin-2-yl)piperidin-1-yl)methyl)-4-(cyclopropylmethoxy)-1-(oxetan-2-ylmethyl)-1H-benzo[d]imidazole-6-carboxylic acid]: the pEC50 under setting [1] was 10.92.

Turning to `COc1cc(C(=O)O)cc2c1nc(CN1CCC(c3cccc(OCc4ccc(C#N)c5c4OCC5)c3)CC1)n2C[C@@H]1CCO1` [Compound 43, (S)-2-((4-(3-((4-cyano-2,3-dihydrobenzofuran-7-yl)methoxy)phenyl)piperidin-1-yl)methyl)-4-methoxy-1-(oxetan-2-ylmethyl)-1H-benzo[d]imidazole-6-carboxylic acid], the pEC50 under setting [1] was 10.47.

On to `CCOc1cc(C(=O)O)cc2c1nc(CN1CCC(c3cccc4c3OC(C)(c3ccc(C(F)(F)F)cc3OC)O4)CC1)n2C[C@@H]1CCO1` (stereo partly drawn) [Compound 60], for which the pEC50 under setting [1] was 11.59.

As to `CCOc1cc(C(=O)O)cc2c1nc(CN1CCC(c3cccnc3OCc3ccc(Cl)cc3F)CC1)n2C[C@@H]1CCO1` [Compound 32, (S)-2-((4-(2-((4-chloro-2-fluorobenzyl)oxy)pyridin-3-yl)piperidin-1-yl)methyl)-4-ethoxy-1-(oxetan-2-ylmethyl)-1H-benzo[d]imidazole-6-carboxylic acid], under setting [1], the pEC50 was 10.85.

As to `N#Cc1ccc(COc2cccc(C3CCN(Cc4nc5c(F)cc(C(=O)O)cc5n4C[C@@H]4CCO4)CC3)n2)c(F)c1` [WO2022109182 , Example 21, reference compound], under setting [2], the pEC50 is 10.58.

Take `N#Cc1ccc(COc2cccc(N3C=NN(Cc4nc5c(OC(F)F)cc(C(=O)O)cc5n4C[C@@H]4CCO4)CC3)n2)c(F)c1` [Compound 11, (S)-2-((4-(6-((4-cyano-2-fluorobenzyl)oxy)pyridin-2-yl)-5,6-dihydro-1,2,4-triazin-1(4H)-yl)methyl)-4-(difluoromethoxy)-1-(oxetan-2-ylmethyl)-1H-benzo[d]imidazole-6-carboxylic acid]: under setting [1], the pEC50 is 10.88.

For the molecule `CC1(c2ccc(Cl)cn2)Oc2cccc(N3C=NN(Cc4nc5ccc(C(=O)O)cc5n4C[C@@H]4CCO4)CC3)c2O1` (stereo partly drawn) [CN2022114139828 , Compound 36, reference compound], the pEC50 under setting [2] was 9.47.

For the molecule `COc1cc(C(=O)O)cc2c1nc(CN1CCC(c3cccc4c3OC(C)(c3ccc(Cl)cc3F)O4)CC1)n2C[C@@H]1CCO1` (stereo partly drawn) [Compound 36, 2-((4-(2-(4-chloro-2-fluorophenyl)-2-methylbenzo[d][1,3]dioxol-4-yl)piperidin-1-yl)methyl)-4-methoxy-1-(((S)-oxetan-2-yl)methyl)-1H-benzo[d]imidazole-6-carboxylic acid], the pEC50 under setting [1] was 11.08.

On to `[2H]C([2H])([2H])C([2H])([2H])Oc1cc(C(=O)O)cc2c1nc(CN1CCN(c3cccc4c3O[C@](C)(c3ccc(Cl)cc3F)O4)C=N1)n2C[C@@H]1CCO1` [Compound 76-2, 2-((4-((R)-2-(4-chloro-2-fluorophenyl)-2-methylbenzo[d][1,3]dioxol-4-yl)-5,6-dihydro-1,2,4-triazin-1(4H)-yl)methyl)-4-(ethoxy-d5)-1-(((S)-oxetan-2-yl)methyl)-1H-benzo[d]imidazole-6-carboxylic acid], for which, under setting [1], the pEC50 was 9.22.

As to `COc1cc(C(=O)O)cc2c1nc(CN1CCC(c3cccnc3OCc3ccc(Cl)cc3F)CC1)n2C[C@@H]1CCO1` [Compound 31, (S)-2-((4-(2-((4-chloro-2-fluorobenzyl)oxy)pyridin-3-yl)piperidin-1-yl)methyl)-4-methoxy-1-(oxetan-2-ylmethyl)-1H-benzo[d]imidazole-6-carboxylic acid], the pEC50 under setting [1] was 10.43.

Regarding `[2H]C([2H])([2H])Oc1cc(C(=O)O)cc2c1nc(CN1CCN(c3cccc4c3OC(C)(c3ccc(Cl)cn3)O4)C=N1)n2C[C@@H]1CCO1` (stereo partly drawn) [Compound 70, 2-((4-(2-(5-chloropyridin-2-yl)-2-methylbenzo[d][1,3]dioxol-4-yl)-5,6-dihydro-1,2,4-triazin-1(4H)-yl)methyl)-4-(methoxy-d3)-1-(((S)-oxetan-2-yl)methyl)-1H-benzo[d]imidazole-6-carboxylic acid], the pEC50 under setting [1] was 10.56.

Consider `CCOc1cc(C(=O)O)cc2c1nc(CN1CCC(c3cccc4c3OC(C)(c3ccc(Cl)cc3OC)O4)CC1)n2C[C@@H]1CCO1` (stereo partly drawn) [Compound 58, 2-((4-(2-(4-chloro-2-methoxyphenyl)-2-methylbenzo[d][1,3]dioxol-4-yl)piperidin-1-yl)methyl)-4-ethoxy-1-(((S)-oxetan-2-yl)methyl)-1H-benzo[d]imidazole-6-carboxylic acid], for which, under setting [1], the pEC50 was 11.66.

Regarding `[2H]C([2H])([2H])C([2H])([2H])Oc1cc(C(=O)O)cc2c1nc(CN1CCN(c3cccc4c3OC(C)(c3cc(F)c(Cl)cc3F)O4)C=N1)n2C[C@@H]1CCO1` (stereo partly drawn) [Compound 80, 2-((4-(2-(4-chloro-2,5-difluorophenyl)-2-methylbenzo[d][1,3]dioxol-4-yl)-5,6-dihydro-1,2,4-triazin-1(4H)-yl)methyl)-4-(ethoxy-d5)-1-(((S)-oxetan-2-yl)methyl)-1H-benzo[d]imidazole-6-carboxylic acid], the pEC50 under setting [1] is 10.36.

Regarding `CCOc1cc(C(=O)O)cc2c1nc(CN1CCC(c3cccnc3OCc3ccc(C#N)cc3F)CC1)n2C[C@@H]1CCO1` [Compound 33, (S)-2-((4-(2-((4-cyano-2-fluorobenzyl)oxy)pyridin-3-yl)piperidin-1-yl)methyl)-4-ethoxy-1-(oxetan-2-ylmethyl)-1H-benzo[d]imidazole-6-carboxylic acid], under setting [1], the pEC50 is 10.33.

Consider `CC1(c2ccc(Cl)cn2)Oc2cccc(C3CCN(Cc4nc5c(OC(F)F)cc(C(=O)O)cc5n4C[C@@H]4CCO4)CC3)c2O1` (stereo partly drawn) [Compound 62, 2-((4-(2-(5-chloropyridin-2-yl)-2-methylbenzo[d][1,3]dioxol-4-yl)piperidin-1-yl)methyl)-4-(difluoromethoxy)-1-(((S)-oxetan-2-yl)methyl)-1H-benzo[d]imidazole-6-carboxylic acid], for which the pEC50 under setting [1] was 10.66.

For the molecule `COc1cc(C(=O)O)cc2c1nc(CN1CCC(c3ccccc3OCc3ccc(C#N)c4c3OCC4)CC1)n2C[C@@H]1CCO1` [Compound 46, (S)-2-((4-(2-((4-cyano-2,3-dihydrobenzofuran-7-yl)methoxy)phenyl)piperidin-1-yl)methyl)-4-methoxy-1-(oxetan-2-ylmethyl)-1H-benzo[d]imidazole-6-carboxylic acid], the pEC50 under setting [1] was 10.37.

Turning to `COc1cc(C(=O)O)cc2c1nc(CN1CCN(c3cccc(OCc4ccc(C(F)(F)F)cc4F)n3)C=N1)n2C[C@@H]1CCO1` [Compound 22, (S)-2-((4-(6-((2-fluoro-4-(trifluoromethyl)benzyl)oxy)pyridin-2-yl)-5,6-dihydro-1,2,4-triazin-1(4H)-yl)methyl)-4-methoxy-1-(oxetan-2-ylmethyl)-1H-benzo[d]imidazole-6-carboxylic acid], the pEC50 under setting [1] is 11.07.

Regarding `COc1cc(C(=O)O)cc2c1nc(CN1CCN(c3cccc(OCc4ccc(C#N)cc4F)n3)C=N1)n2C[C@@H]1CCO1` [Compound 8, (S)-2-((4-(6-((4-cyano-2-fluorobenzyl)oxy)pyridin-2-yl)-5,6-dihydro-1,2,4-triazin-1(4H)-yl)methyl)-4-methoxy-1-(oxetan-2-ylmethyl)-1H-benzo[d]imidazole-6-carboxylic acid], the pEC50 under setting [1] was 11.47.

The values are drawn from patent EP4650353A1 (Shanghai Institute of Materia Medica, Chinese Academy of …, priority 2023, dated 2024).
